From PubChem BioAssay (NCI)
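Growth conditions: 96-well plates. Treatment: test compound, 48 hours, 5 concentrations. Analysis: linear interpolation between bracketing concentrations; unreached endpoints set to highest concentration. TGI: total growth inhibition.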

Legend:
Test in all cases: inhibition of tumour cell growth, NCI panel, 48 h
[1] = tested on: A498 renal
[2] = tested on: SN12C renal
[3] = tested on: DMS 114 small cell lung
[4] = tested on: SNB-78 CNS
[5] = tested on: HT29 colon
[6] = tested on: HL-60(TB) leukemia
[7] = tested on: OVCAR-5 ovarian
[8] = tested on: K-562 leukemia
[9] = tested on: HOP-92 NSCLC
[10] = tested on: SNB-19 CNS
[11] = tested on: SW-620 colon
[12] = tested on: NCI-H226 lung
[13] = tested on: M19-MEL melanoma
[14] = tested on: A549 NSCLC
[15] = tested on: SK-MEL-2 melanoma
[16] = tested on: DMS 273 small cell lung
[17] = tested on: OVCAR-4 ovarian
[18] = tested on: CAKI-1 renal
[19] = tested on: TK-10 renal
[20] = tested on: ACHN renal

Structure (SMILES): CC(C)Cc1ccc(C(C)C(=O)N2CCN(/C=C/c3ccccc3)CC2)cc1 (stereo unspecified)
- TGI [1]: 31.8 µM
- TGI [2]: 30.8 µM
- TGI [3]: 24.6 µM
- TGI [4]: 46.7 µM
- TGI [5]: 28 µM
- TGI [6]: 18.7 µM
- TGI [7]: 26.9 µM
- TGI [8]: 29.3 µM
- TGI [9]: 26.1 µM
- TGI [10]: 22 µM
- TGI [11]: 30.3 µM
- TGI [12]: 18.1 µM
- TGI [13]: 29.7 µM
- TGI [14]: 29.7 µM
- TGI [15]: 27 µM
- TGI [16]: 24.2 µM
- TGI [17]: 25.6 µM

Structure (SMILES): O=c1cc[nH]c(=O)[nH]1
- TGI [2]: > 917 µM
- TGI [3]: > 1000 µM
- TGI [4]: > 1000 µM
- TGI [5]: > 1000 µM
- TGI [6]: > 1000 µM
- TGI [7]: > 956 µM
- TGI [8]: > 1000 µM
- TGI [9]: > 1000 µM
- TGI [10]: 828 µM
- TGI [11]: > 1000 µM
- TGI [12]: 990 µM
- TGI [13]: > 944 µM
- TGI [14]: > 1000 µM
- TGI [15]: > 1000 µM
- TGI [18]: > 920 µM
- TGI [16]: > 729 µM
- TGI [17]: > 1000 µM

Structure (SMILES): O=C1c2cccc3c2C(=O)c2c(cccc21)OCCOCCOCCOCCO3
- TGI [2]: > 100 µM
- TGI [19]: > 100 µM
- TGI [3]: > 100 µM
- TGI [4]: > 100 µM
- TGI [5]: > 100 µM
- TGI [6]: > 100 µM
- TGI [7]: > 100 µM
- TGI [8]: > 100 µM
- TGI [10]: > 100 µM
- TGI [11]: > 100 µM
- TGI [12]: > 100 µM
- TGI [13]: > 100 µM
- TGI [20]: > 100 µM
- TGI [14]: > 100 µM
- TGI [15]: > 100 µM
- TGI [18]: > 100 µM
- TGI [16]: > 100 µM
- TGI [17]: > 100 µM

Structure (SMILES): NC(CCCCCP(=O)(c1ccccc1)C1C=CC=CC1)C(=O)O (stereo unspecified)
- TGI [2]: > 100 µM
- TGI [19]: > 100 µM
- TGI [5]: > 100 µM
- TGI [6]: > 100 µM
- TGI [7]: > 100 µM
- TGI [8]: > 100 µM
- TGI [9]: > 100 µM
- TGI [10]: > 100 µM
- TGI [11]: > 100 µM
- TGI [20]: > 100 µM
- TGI [14]: > 100 µM
- TGI [15]: > 100 µM
- TGI [18]: > 100 µM
- TGI [17]: > 100 µM

Structure (SMILES): CCN(CC)CCNc1ccc2nnn3c4ccc(OCCN(CC)CC)cc4c(=O)c1c23
- TGI [1]: > 100 µM
- TGI [2]: > 100 µM
- TGI [19]: > 100 µM
- TGI [5]: 54.2 µM
- TGI [7]: > 100 µM
- TGI [8]: > 100 µM
- TGI [9]: > 100 µM
- TGI [10]: > 100 µM
- TGI [11]: > 100 µM
- TGI [20]: > 100 µM
- TGI [14]: > 100 µM
- TGI [15]: > 100 µM
- TGI [18]: > 100 µM
- TGI [17]: 41.3 µM

Structure (SMILES): O=P(O)(O)CCP(=O)(O)O
- TGI [1]: > 100 µM
- TGI [2]: > 100 µM
- TGI [19]: > 100 µM
- TGI [5]: > 100 µM
- TGI [6]: > 100 µM
- TGI [7]: > 100 µM
- TGI [8]: > 100 µM
- TGI [9]: > 100 µM
- TGI [10]: > 100 µM
- TGI [11]: > 100 µM
- TGI [20]: > 100 µM
- TGI [14]: > 100 µM
- TGI [15]: > 100 µM
- TGI [18]: > 100 µM
- TGI [17]: > 100 µM

Structure (SMILES): COc1ccc(/C=C2\CCNC2=O)cc1
- TGI [1]: > 100 µM
- TGI [2]: > 100 µM
- TGI [3]: > 100 µM
- TGI [4]: > 100 µM
- TGI [5]: > 100 µM
- TGI [6]: > 100 µM
- TGI [7]: > 100 µM
- TGI [8]: > 100 µM
- TGI [9]: > 100 µM
- TGI [10]: > 100 µM
- TGI [11]: > 100 µM
- TGI [12]: > 100 µM
- TGI [13]: > 100 µM
- TGI [14]: > 100 µM
- TGI [15]: > 100 µM
- TGI [18]: > 100 µM
- TGI [16]: > 100 µM
- TGI [17]: > 100 µM

Structure (SMILES): C=CCc1c(O)c2c(c3oc(=O)cc(C)c13)CC(C)O2 (stereo unspecified)
- TGI [2]: > 100 µM
- TGI [19]: > 100 µM
- TGI [3]: > 100 µM
- TGI [4]: > 100 µM
- TGI [5]: > 100 µM
- TGI [6]: > 100 µM
- TGI [7]: > 100 µM
- TGI [8]: > 100 µM
- TGI [10]: > 100 µM
- TGI [11]: > 100 µM
- TGI [12]: > 100 µM
- TGI [13]: > 100 µM
- TGI [20]: > 100 µM
- TGI [14]: > 100 µM
- TGI [15]: > 100 µM
- TGI [18]: > 100 µM
- TGI [16]: > 100 µM
- TGI [17]: > 100 µM

Structure (SMILES): CCCC(=O)OCC1OC(n2ccc(N)nc2=O)C(OC(=O)CCC)C1OC(=O)CCC (stereo unspecified)
- TGI [1]: > 100 µM
- TGI [2]: > 100 µM
- TGI [3]: > 100 µM
- TGI [4]: > 100 µM
- TGI [5]: > 100 µM
- TGI [6]: 25.1 µM
- TGI [7]: > 100 µM
- TGI [8]: > 100 µM
- TGI [9]: > 100 µM
- TGI [10]: > 100 µM
- TGI [11]: > 100 µM
- TGI [12]: > 100 µM
- TGI [13]: > 100 µM
- TGI [14]: > 100 µM
- TGI [15]: > 100 µM
- TGI [18]: > 100 µM
- TGI [16]: > 100 µM
- TGI [17]: > 100 µM

Structure (SMILES): CCOc1ncn(-c2ccc(NC(=S)Nc3ncccn3)cc2)n1
- TGI [2]: > 100 µM
- TGI [19]: > 100 µM
- TGI [5]: 25.7 µM
- TGI [6]: 65.2 µM
- TGI [7]: > 100 µM
- TGI [8]: > 100 µM
- TGI [9]: 87 µM
- TGI [10]: > 100 µM
- TGI [11]: > 100 µM
- TGI [14]: > 100 µM
- TGI [17]: > 100 µM

Structure (SMILES): Cc1c(O)ccc2c(O)c(NC(=O)c3ccc4c(c3)CCC(C)(C)O4)c(=O)oc12
- TGI [1]: > 100 µM
- TGI [2]: > 100 µM
- TGI [19]: > 100 µM
- TGI [5]: > 100 µM
- TGI [6]: > 100 µM
- TGI [7]: > 100 µM
- TGI [8]: > 100 µM
- TGI [9]: > 100 µM
- TGI [10]: > 100 µM
- TGI [11]: > 100 µM
- TGI [12]: > 100 µM
- TGI [20]: > 100 µM
- TGI [14]: > 100 µM
- TGI [15]: > 100 µM
- TGI [18]: > 100 µM
- TGI [17]: > 100 µM
